Converted amounts (≈) assume the structure as drawn. Read-outs that look alike come from different tables or passages of the source.
Experiments:
S. aureus ATCC 27660 = experiment: MIC, control bacteria (Example 8); assay type: cell-based
Procedure: • Mueller-Hinton Broth in tubes was inoculated with 25 ocular isolates of Staphylococcus aureus fluoroquinolone-susceptible, Staphylococcus aureus fluoroquinolone-resistant, Staphylococcus epidermidis (Coagulase-negative Staphylococcus) fluoroquinolone-susceptible, Staphylococcus epidermidis (Coagulase-negative Staphylococcus) fluoroquinolone-resistant, Pseudomonas aeruginosa and Serratia marcescens, plus two controls (Staphylococcus aureus and E. coli) and incubated at 37° C. overnight on a shaker set at 250 rpm.
Control Bacteria—The two control bacteria (Staphylococcus aureus and E. coli) were treated as above.
Control Bacteria Set #1—this set of control bacteria were treated as the Streptococcus pneumoniae, Streptococcus viridans and Moraxella species (including Moraxella catarrhalis) test isolates above; the control bacteria underwent the same conditions as the test Streptococcus pneumoniae, Streptococcus viridans and Moraxella species (including Moraxella catarrhalis) isolates. This set of control bacteria was to determine whether there was a difference in the MICs by performing the MIC determinations in 2% lysed horse red blood cells with the standard method performed in Mueller-Hinton broth.
Control Bacteria Set #2—the control bacteria were added to 5 ml of Mueller-Hinton Broth without the 2% lysed horse red blood cells to achieve the standard inoculum concentration. This set of control bacteria is the normal control to determine whether the compounds are at the target MICs.
Control Bacteria Set #1—this set of control bacteria were treated as the Haemophilus influenzae test isolates above; the control bacteria underwent the same conditions as the test Haemophilus influenzae isolates. This set of control bacteria is to determine whether there was a difference in the MICs by performing the MIC determinations in HTM broth with the standard method performed in Mueller-Hinton broth.
Control Bacteria Set #2—the control bacteria were added to 5 ml of Mueller-Hinton Broth to achieve the standard inoculum concentration. This set of control bacteria is the normal control to determine whether the compounds are at the target MICs.
Ninety μl of the bacterial suspensions was dispensed in each well from column 1 to column 12. Each bacterial isolate was placed in one row of a 96 well polypropylene plate containing the test agents. The plates were placed on shaker at 15 minutes at room temperature, and then incubated at 37° C. overnight. MICs were determined visually as the lowest concentration of drug that inhibits visible bacterial growth.

E. faecalis ATCC 29212 = experiment: MIC, laboratory strains (Example 8); assay type: cell-based

## N=C(N)NCCCCC(=O)Nc1cc(C(F)(F)F)cc(NC(=O)c2cnc(C(=O)Nc3cc(C(F)(F)F)cc(NC(=O)CCCCNC(=N)N)c3SCCN)cn2)c1SCCN [Oligomer 5]
S. aureus ATCC 27660; Control Bacteria S. aureus ATCC 27660
  Decrease of activity by use of HTM broth: approximately 8 fold
S. aureus ATCC 27660; Control Bacteria Set #1, run with Haemophilus influenzae MIC test, read-out: MIC
  MIC: 4 µg/mL (≈ 4.36 µM)
S. aureus ATCC 27660; S. aureus ATCC 27660
  MIC: 0.78 µg/mL (≈ 0.851 µM)
S. aureus ATCC 27660; S. aureus ATCC 27660, Control for MIC Test SA-FQR, first batch
  MIC: 8 µg/mL (≈ 8.72 µM)
S. aureus ATCC 27660; S. aureus ATCC 27660, Control for MIC Test SA-FQS, first batch
  MIC: 16 µg/mL (≈ 17.4 µM)
S. aureus ATCC 27660; S. aureus ATCC 27660, new batches, Control Only 1
  MIC: 0.25 µg/mL (≈ 0.273 µM)
S. aureus ATCC 27660; S. aureus ATCC 27660, new batches, Control Only 2
  MIC: 0.25 µg/mL (≈ 0.273 µM)
S. aureus ATCC 27660; S. aureus ATCC 27660, new batches, Control Only 3
  MIC: 0.5 µg/mL (≈ 0.545 µM)
S. aureus ATCC 27660; S. aureus ATCC 27660, new batches, Control Only 4
  MIC: 0.5 µg/mL (≈ 0.545 µM)
S. aureus ATCC 27660; Staphylococcus aureus, ATCC27660, Control Bacteria Set #1, run with Moraxella MIC test, read-out: MIC
  MIC: 1 µg/mL (≈ 1.09 µM)
S. aureus ATCC 27660; Staphylococcus aureus, ATCC27660, Control Only 1, read-out: MIC of control bacteria on day of MIC testing
  MIC: 0.25 µg/mL
S. aureus ATCC 27660; Staphylococcus aureus, ATCC27660, Control Only 2, read-out: MIC of control bacteria on day of MIC testing
  MIC: 0.25 µg/mL
S. aureus ATCC 27660; Staphylococcus aureus, ATCC27660, Control Only 3, read-out: MIC of control bacteria on day of MIC testing
  MIC: 0.5 µg/mL
S. aureus ATCC 27660; Staphylococcus aureus, ATCC27660, Control Only 4, read-out: MIC of control bacteria on day of MIC testing
  MIC: 0.5 µg/mL
S. aureus ATCC 27660; Staphylococcus aureus, ATCC27660, S. aureus ATCC 27660, Control Bacteria Set #1 (same conditions as test isolates), run with Streptococcus pneumoniae MIC test, read-out: MIC
  MIC: 1 µg/mL (≈ 1.09 µM)
S. aureus ATCC 27660; Staphylococcus aureus, ATCC27660, S. aureus ATCC 27660, Control Bacteria Set #1 (same conditions as test isolates), run with Streptococcus viridans group MIC test, read-out: MIC
  MIC: 1 µg/mL (≈ 1.09 µM)
S. aureus ATCC 27660; Staphylococcus aureus, ATCC27660, S. aureus ATCC 27660, Control Bacteria Set #2 (Mueller-Hinton Broth), run with Streptococcus pneumoniae MIC test, read-out: MIC
  MIC: 2 µg/mL (≈ 2.18 µM)
S. aureus ATCC 27660; Staphylococcus aureus, ATCC27660, S. aureus ATCC 27660, Control Bacteria Set #2 (Mueller-Hinton Broth), run with Streptococcus viridans group MIC test, read-out: MIC
  MIC: 1 µg/mL (≈ 1.09 µM)
S. aureus ATCC 27660; Staphylococcus aureus, ATCC27660, S. aureus ATCC 27660, control bacteria run with Pseudomonas aeruginosa MIC test, read-out: MIC
  MIC: 0.25 µg/mL (≈ 0.273 µM)
S. aureus ATCC 27660; Staphylococcus aureus, ATCC27660, S. aureus ATCC 27660, control bacteria run with S. aureus fluoroquinolone-resistant MIC test, read-out: MIC
  MIC: 8 µg/mL (≈ 8.72 µM)
S. aureus ATCC 27660; Staphylococcus aureus, ATCC27660, S. aureus ATCC 27660, control bacteria run with S. aureus fluoroquinolone-susceptible MIC test, read-out: MIC
  MIC: 16 µg/mL (≈ 17.4 µM)
S. aureus ATCC 27660; Staphylococcus aureus, ATCC27660, S. aureus ATCC 27660, control bacteria run with S. epidermidis fluoroquinolone-resistant MIC test, read-out: MIC
  MIC: 0.25 µg/mL (≈ 0.273 µM)
S. aureus ATCC 27660; Staphylococcus aureus, ATCC27660, S. aureus ATCC 27660, control bacteria run with S. epidermidis fluoroquinolone-susceptible MIC test, read-out: MIC
  MIC: 0.25 µg/mL (≈ 0.273 µM)
S. aureus ATCC 27660; Staphylococcus aureus, ATCC27660, S. aureus ATCC 27660, control bacteria run with Serratia marcescens MIC test, read-out: MIC
  MIC: 0.5 µg/mL (≈ 0.545 µM)
S. aureus ATCC 27660; Staphylococcus aureus, ATCC27660, S. aureus ATCC 27660, MIC previously obtained (target MIC), printed in parentheses, read-out: MIC for Control Bacteria within the parentheses
  MIC: 0.78 µg/mL (≈ 0.851 µM)
S. aureus ATCC 27660; Staphylococcus aureus, ATCC27660, S. aureus ATCC27660, read-out: MIC
  MIC: 0.78 µg/mL (≈ 0.851 µM)
S. aureus ATCC 27660; Staphylococcus aureus, ATCC27660, control for MIC test HI (Control Bacteria Set #2), read-out: MIC of control bacteria on day of MIC testing
  MIC: 0.5 µg/mL
S. aureus ATCC 27660; Staphylococcus aureus, ATCC27660, control for MIC test MS (Control Bacteria Set #2), read-out: MIC of control bacteria on day of MIC testing
  MIC: 0.5 µg/mL
S. aureus ATCC 27660; Staphylococcus aureus, ATCC27660, control for MIC test PA, read-out: MIC of control bacteria on day of MIC testing
  MIC: 0.25 µg/mL
S. aureus ATCC 27660; Staphylococcus aureus, ATCC27660, control for MIC test SA-FQR, read-out: MIC of control bacteria on day of MIC testing
  MIC: 8 µg/mL
S. aureus ATCC 27660; Staphylococcus aureus, ATCC27660, control for MIC test SA-FQS, read-out: MIC of control bacteria on day of MIC testing
  MIC: 16 µg/mL
S. aureus ATCC 27660; Staphylococcus aureus, ATCC27660, control for MIC test SE-FQR, read-out: MIC of control bacteria on day of MIC testing
  MIC: 0.25 µg/mL
S. aureus ATCC 27660; Staphylococcus aureus, ATCC27660, control for MIC test SE-FQS, read-out: MIC of control bacteria on day of MIC testing
  MIC: 0.25 µg/mL
S. aureus ATCC 27660; Staphylococcus aureus, ATCC27660, control for MIC test SM, read-out: MIC of control bacteria on day of MIC testing
  MIC: 0.5 µg/mL
S. aureus ATCC 27660; Staphylococcus aureus, ATCC27660, control for MIC test SP, read-out: MIC of control bacteria on day of MIC testing
  MIC: 2 µg/mL
S. aureus ATCC 27660; Staphylococcus aureus, ATCC27660, control for MIC test SV, read-out: MIC of control bacteria on day of MIC testing
  MIC: 1 µg/mL
S. aureus ATCC 27660; Staphylococcus aureus, ATCC27660, reference MIC printed in parentheses beside the day's control value, read-out: MIC for Control Bacteria (within the parentheses)
  MIC: 0.78 µg/mL (≈ 0.851 µM)
E. faecalis ATCC 29212
  MIC: 1.56 µg/mL (≈ 1.7 µM)
